These are literature values, as cited in US20110040266A1, “ANTI-INSOMNIA COMPOSITIONS AND METHODS” (priority 2007, published 2011).

For the series the following is noted: tablet form; administered from 5 hours to 1 hour before waking.

Consider `Cc1ccc(-c2nc3ccc(C)cn3c2CC(=O)N(C)C)cc1` [zolpidem, N,N,6-trimethyl-2-p-tolyl-imidazo[1,2-a]pyridine-3-acetamide], for which the “residual effects of night-time dosing” value was “results in residual drowsiness and sleepiness”.
